Laboratory results published in US5322846A, “4-methylthiazole derivatives, their methods of preparation and the pharmaceutical compositions in which they are present” (Institut de Recherches Chimiques et Biologiques Appliquees …, priority 1990, dated 1994).
Read-outs that look alike come from different tables or passages of the source.

What was measured:
[1] = tested on: hypertension induced by norepinephrine; assay: Inhibitory activity towards hypertension induced by norepinephrine in anesthetized rabbits; assay type: in vivo; conditions: Oryctolagus cuniculus; anesthetized male rabbits, intravenous; read-out: ID50 (50% inhibition of norepinephrine-induced hypertension)
Experimental: The blood pressure is measured by catheterization of the left carotid artery of anesthetized male rabbits. An increase in blood pressure is induced by an intravenous injection of norepinephrine. This hypertension can be inhibited by the prior administration of molecules with an alpha-blocking potential.
These are presented in Table 6 in the form of the 50% inhibitory dose (ID50), which is defined as the dose of product which, when administered intravenously, causes a 50% inhibition of the hypertension induced by norepinephrine.

[2] = tested on: lethal effect of norepinephrine; assay: Adrenolytic activity in vivo on the lethal effect of norepinephrine in rats; conditions: for ED50: Rattus norvegicus, wake male rats, norepinephrine 0.4 mg.kg^-1 intravenous, prior administration of product, read-out: ED50 (dose which protects 50% of the animals); for adrenolytic activity in the whole animals: rats, in words
Experimental: The intravenous injection of norepinephrine (0.4 mg.kg^-1) into wake male rats causes the death of 100% of the animals. The prior administration of a substance which has an alpha-blocking property makes it possible to reduce this toxicity.
The results are expressed in the form of the 50% effective dose (ED50), i.e. the dose in mg.kg^-1 which protects 50% of the animals (Table 5).

[3] = target: T1, postsynaptic alpha-adrenergic receptors (Rattus norvegicus, UniProt P43140); assay: Alpha-blocking activity towards norepinephrine on isolated rat vas deferens; assay type: biochemical; conditions: -log of concentration requiring doubled norepinephrine; for Kb: read-out: pA2 (converted)
T1 construct: causes contraction of the isolated vas deferens; from tissue; host or cells: isolated rat vas deferens
T1 sequence (P43140 1-466): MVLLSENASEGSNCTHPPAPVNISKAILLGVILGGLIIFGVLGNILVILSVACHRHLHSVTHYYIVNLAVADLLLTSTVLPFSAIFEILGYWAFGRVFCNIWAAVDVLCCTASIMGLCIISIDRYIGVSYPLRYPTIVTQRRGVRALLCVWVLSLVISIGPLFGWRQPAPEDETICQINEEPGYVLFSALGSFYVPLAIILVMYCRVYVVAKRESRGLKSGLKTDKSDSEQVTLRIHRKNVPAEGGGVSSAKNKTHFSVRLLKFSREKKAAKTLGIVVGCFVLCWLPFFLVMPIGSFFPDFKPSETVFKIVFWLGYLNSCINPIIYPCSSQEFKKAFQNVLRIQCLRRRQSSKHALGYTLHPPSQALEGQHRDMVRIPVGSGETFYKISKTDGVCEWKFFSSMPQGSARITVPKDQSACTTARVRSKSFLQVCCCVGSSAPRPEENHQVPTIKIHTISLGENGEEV
Experimental: Stimulation of the postsynaptic alpha-adrenergic receptors by norepinephrine causes contraction of the isolated vas deferens.
The concentration of product in whose presence the norepinephrine concentration must be doubled in order to obtain the same effect as in the absence of said product is determined. The logarithm of this concentration, with the opposite sign, constitutes the pA2 of the products.
Their alpha-blocking activity is high since it appears for low concentrations of between 10^-6 M and 10^-8 M.

[4] = Acute toxicity in mice (oral, LD50); conditions: mouse, in vivo, male mice, single dose, 14-day observation
Experimental: The products were administered orally in a single dose to male mice with an average weight of 22 g. The mortality was recorded after a 14-day observation period.
The results are expressed in the form of the 50% lethal dose (LD50), i.e. the theoretical dose in mg.kg^-1, administered orally, which causes the death of 50% of the animals.
The majority of the molecules have an LD50 of more than 1 g.kg^-1. These are therefore products with a low toxicity after a single administration.

[5] = tested on: femoral blood pressure and heart rate; assay: Cardiovascular activity (blood pressure and heart rate) in anesthetized rats; assay type: in vivo; conditions: for Heart rate, maximum effect in % / ED25: I.V., pentobarbital-anesthetized rats; for ED25: Rattus norvegicus, iv, 25% drop in average blood pressure; for hypotensive potential compared with nicardipine: ED25 values 5 min after I.V. injection, in words
Experimental: The cardiovascular effects of three products were studied in rats anesthetized with pentobarbital and placed under artificial respiration. The femoral blood pressure and the heart rate are recorded by means of a GOULD-BRUSH apparatus.
The products are administered intravenously in increasing doses. Three animals are tested per product. The dose which causes a 25% drop in average blood pressure (ED25) was evaluated for each product and compared with nicardipine 1 to 5 min after administration.
The products have dose-dependent hypotensive effects but have little or no effect on the heart rate (Table 7). The most hypotensive in terms of the effective dose is B 1395 (ED25 of 0.004 mg.kg^-1).

[6] = 1 min, 1 minute, read-out: Blood pressure: Hypotension, ED25 at 1 minute
[7] = 5 min, 5 minutes, read-out: Blood pressure: Hypotension, ED25 at 5 minutes

In the case of `CCCOc1ccccc1N1CCN(CCOc2scnc2C)CC1` [B 1342, 4-methyl-5-[2-(4-o-propoxyphenylpiperazin-1-yl)-ethoxy]thiazole], the ED50 [1] is reported as 7.3 mg/kg, the ED50 [2] is reported as 4 mg/kg and the Kb [3] is reported as 16.2 nM. For the same molecule, the LD50 at 336 h [4] was over 1000 mg/kg.

For `COc1ccccc1N1CCN(CC(O)COc2scnc2C)CC1` (stereo not shown) [B 1510, 3-(4-o-methoxyphenylpiperazin-1-yl)-1-(4-methylthiazolyl-5-oxy)propan-2-ol], the ED50 [2] was 0.52 mg/kg, the “adrenolytic activity in the whole animals” value (shortened to “adrenolytic activity”) [2] was “very active” and the “Heart rate, maximum effect in %” value [5] was -6%. For the same molecule, the ED25 [5, 6] was 0.01 mg/kg, the ED25 [5, 7] was 0.01 mg/kg and the Kb [3] was 21.4 nM. The LD50 at 336 h [4] was 235 mg/kg.

In the case of `Cc1ncsc1OCCN1CCN(c2cccc(C(F)(F)F)c2)CC1` [B 1194, 4-methyl-5-[2-(4-m-trifluoromethylphenylpiperazin-1yl)ethoxy]thiazole], the ED50 [2] is reported as 200 mg/kg, the Kb [3] is reported as 2570 nM and the LD50 at 336 h [4] is reported as over 1000 mg/kg.

For `COC(=O)C1=C(C)NC(C)=C(C(=O)OCCN(C)Cc2ccccc2)C1c1cccc([N+](=O)[O-])c1` (stereo not shown) [NICARDIPINE, nicardipine, reference compound], the “Heart rate, maximum effect in %” value [5] was 0%, the ED25 [5, 6] was 0.0015 mg/kg and the ED25 [5, 7] was 0.2 mg/kg.

In the case of `Cc1ncsc1OCCN1CCN(c2ccccc2)CC1` [B 1216, 4-methyl-5-[2-(4-phenylpiperazin-1-yl)ethoxy]thiazole], the ED50 [1] is reported as over 3 mg/kg, the ED50 [2] is reported as 33 mg/kg and the Kb [3] is reported as 89.1 nM. The LD50 at 336 h [4] was over 1000 mg/kg.

With `Cc1ncsc1OCC(O)CN1CCN(c2cccc(C(F)(F)F)c2)CC1` (stereo not shown) [B 1489, 3-(4-m-trifluoromethylphenylpiperazin-1-yl)-1-(4-methylthiazolyl-5-oxy)propan-2-ol] the ED50 [2] was 59.7 mg/kg and the LD50 at 336 h [4] was over 1000 mg/kg.

With `CCCCCOc1ccccc1N1CCN(CC(O)COc2scnc2C)CC1` (stereo not shown) [B 1525, 3-(4-o-pentoxyphenylpiperazin-1-yl)-1-(4-methylthiazolyl-5-oxy)propan-2-ol] the ED50 [2] was 1.27 mg/kg, the “adrenolytic activity” value [2] was “very active” and the “Heart rate, maximum effect in %” value [5] was -8%. For the same molecule, the ED25 [5, 6] was 0.04 mg/kg, the ED25 [5, 7] was 0.04 mg/kg and the Kb [3] was 7.94 nM. The LD50 at 336 h [4] was over 1000 mg/kg.

With `Cc1ncsc1OCC(O)CN1CCN(c2ccccc2OCCC(C)C)CC1` (stereo not shown) [B 1552, 3-(4-o-isopentoxyphenylpiperazin-1-yl)-1-(4-methylthiazolyl-5-oxy)propan-2-ol] the ED50 [2] was 1.55 mg/kg, the “adrenolytic activity” value [2] was “very active” and the “hypotensive potential compared with nicardipine” value [5] was “on a level with that of nicardipine”. For the same molecule, the “Heart rate, maximum effect in %” value [5] was -7.9%, the ED25 [5, 6] was 0.12 mg/kg and the ED25 [5, 7] was 0.25 mg/kg. The Kb [3] was 22.9 nM and the LD50 at 336 h [4] was over 1000 mg/kg.

Work on `Cc1cc(Cl)ccc1N1CCN(CC(O)COc2scnc2C)CC1` (stereo not shown) [B 1406, 3-[4-(4-chloro-2-methylphenyl)piperazin-1-yl]-1-(4-methylthiazolyl-5-oxy)propan-2-ol] yielded an ED50 [2] of 8.1 mg/kg, a pA2 [3] of 6.40 and an LD50 at 336 h [4] of 515 mg/kg.

With `Cc1ncsc1OCC(O)CN1CCN(c2cccc(Cl)c2)CC1` (stereo not shown) [B 1548, 3-(4-m-chlorophenylpiperazin-1-yl)-1-(4-methylthiazolyl-5-oxy)propan-2-ol] the ED50 [2] was 15.8 mg/kg, the “adrenolytic activity” value [2] was “very active” and the LD50 at 336 h [4] was over 500 mg/kg.

In the case of `Cc1cccc(Cl)c1N1CCN(CCOc2scnc2C)CC1` [B 1366, 4-methyl-5-[2-[4-(6-chloro-2-methylphenyl)piperazin-1-yl]ethoxy]thiazole], the ED50 [2] is reported as 100 mg/kg, the Kb [3] is reported as over 1000 nM and the LD50 at 336 h [4] is reported as 740 mg/kg.

With `Cc1ncsc1OCCN1CCN(c2ccccc2O)CC1` [B 1430, 4-methyl-5-[2-(4-o-hydroxyphenylpiperazin-1-yl)-ethoxy]thiazole] the ED50 [2] was 8.3 mg/kg, the Kb [3] was 229 nM and the LD50 at 336 h [4] was 305 mg/kg.

For `Cc1ncsc1OCC(O)CN1CCN(c2ccccc2OC(C)C)CC1` (stereo not shown) [B 1429, 3-(4-o-isopropoxyphenylpiperazin-1-yl)-1-(4-methylthiazolyl-5-oxy)propan-2-ol], the ED50 [2] was 0.5 mg/kg, the “adrenolytic activity” value [2] was “very active” and the “Heart rate, maximum effect in %” value [5] was -5.1%. It also gave an ED25 [5, 6] of 0.016 mg/kg, an ED25 [5, 7] of 0.03 mg/kg and a Kb [3] of 4.57 nM. It also gave an LD50 at 336 h [4] of 428 mg/kg.

In the case of `Cc1ncsc1OCC(O)CN1CCN(c2ccccc2OCC(C)(C)C)CC1` (stereo not shown) [B 1562, 3-(4-o-neopentoxyphenylpiperazin-1-yl)-1-(4-methylthiazolyl-5-oxy)propan-2-ol], the LD50 at 336 h [4] is reported as over 1000 mg/kg.

Molecule `Cc1ncsc1OCCN1CCN(c2ccc(F)cc2)CC1` [B 1227, 4-methyl-5-[2-(4-p-fluorophenylpiperazin-1-yl)ethoxy]thiazole] has an ED50 [2] of 30 mg/kg, a Kb [3] of over 1000 nM and an LD50 at 336 h [4] of 1000 mg/kg.

`Cc1ccc(Cl)cc1N1CCN(CCOc2scnc2C)CC1` [B 1313, 4-methyl-5-[2-[4-(5-chloro-2-methylphenyl)piperazin-1-yl]ethoxy]thiazole] showed an ED50 [2] of 109 mg/kg, a Kb [3] of 81.3 nM and an LD50 at 336 h [4] of 770 mg/kg.

Molecule `CCOc1cccc(N2CCN(CCOc3scnc3C)CC2)c1` [B 1325, 4-methyl-5-[2-(4-m-ethoxyphenylpiperazin-1-yl)-ethoxy]thiazole] has an ED50 [2] of 49 mg/kg, a Kb [3] of 813 nM and an LD50 at 336 h [4] of over 1000 mg/kg.

With `Cc1ncsc1OCC(O)CN1CCN(c2ccccc2O)CC1` (stereo not shown) [B 1396, 3-(4-o-hydroxyphenylpiperazin-1-yl)-1-(4-methylthiazolyl-5-oxy)propan-2-ol] the ED50 [2] was 0.6 mg/kg, the “adrenolytic activity” value [2] was “very active” and the “hypotensive potential compared with nicardipine” value [5] was “on a level with that of nicardipine”. The “Heart rate, maximum effect in %” value [5] was 0%, the ED25 [5, 6] was 0.008 mg/kg and the ED25 [5, 7] was 0.06 mg/kg. For the same molecule, the Kb [3] was 316 nM and the LD50 at 336 h [4] was 315 mg/kg.

Work on `Cc1ncsc1OCCN1CCN(c2ccccc2F)CC1` [B 1305, 4-methyl-5-[2-(4-o-fluorophenylpiperazin-1-yl)-ethoxy]thiazole] yielded an ED50 [1] of 3 mg/kg, an ED50 [2] of 35 mg/kg and a Kb [3] of 81.3 nM. For the same molecule, the LD50 at 336 h [4] was over 1000 mg/kg.

For `Cc1cc(Cl)ccc1N1CCN(CCOc2scnc2C)CC1` [B 1259, 4-methyl-5-[2-[4-(4-chloro-2-methylphenyl)piperazin-1-yl]ethoxy]thiazole], the ED50 [2] was 45 mg/kg, the Kb [3] was 1350 nM and the LD50 at 336 h [4] was 630 mg/kg.

`COc1ccccc1N1CCN(CCOc2scnc2C)CC1` [B 1223, 4-methyl-5-[2-(4-o-methoxyphenylpiperazin-1-yl)ethoxy]thiazole] gave an ED50 [2] of 13 mg/kg, a Kb [3] of 269 nM and an LD50 at 336 h [4] of over 1000 mg/kg.

With `Cc1ncsc1OCC(O)CN1CCN(c2ccccc2OCC(C)C)CC1` (stereo not shown) [B 1431, 3-(4-o-phenylpiperazin-1-yl)-1-(4-methylthiazolyl-5-oxy)propan-2-ol] the ED50 [2] was 0.4 mg/kg, the “adrenolytic activity” value [2] was “very active” and the “hypotensive potential compared with nicardipine” value [5] was “on a level with that of nicardipine”. The “Heart rate, maximum effect in %” value [5] was -12%, the ED25 [5, 6] was 0.1 mg/kg and the ED25 [5, 7] was 0.24 mg/kg. For the same molecule, the Kb [3] was 7.41 nM and the LD50 at 336 h [4] was 1000 mg/kg.

With `CCCOc1ccccc1N1CCN(CCOc2scnc2C)CC1` [B 1242] the “adrenolytic activity” value [2] was “very active”.
